The results in this text go back to ChEMBL document CHEMBL3862022, “Synthesis and biological evaluation of lovastatin-derived aliphatic hydroxamates that induce reactive oxygen species” (Bioorg Med Chem Lett, 2016).

Data set [1] is described as follows: Cytotoxicity against human PC3 cells assessed as growth inhibition after 48 hrs by SRB assay. The following applies: PC-3, 48 h. It counts as functional, cell-based.
Data set [2] is described as follows: Induction of reactive oxygen species in human MDA-MB-231 cells at 10 uM after 24 hrs by DCFH-DA probe-based flow cytometric method. It counts as physicochemical, cell-based. The following applies: mda-mb-231, 24 h.
Data set [3] in a line: Cytotoxicity against human MDA-MB-231 cells assessed as growth inhibition after 24 to 48 hrs by MTT assay. It counts as functional, cell-based.
Data set [4] deals with Serine-protein kinase ATM (Homo sapiens) (UniProt Q13315). Briefly: Induction of ATM phosphorylation in human MDA-MB-231 cells at 10 uM after 6 to 24 hrs by Western blot method. It counts as cell-based.
A short description of data set [5]: Induction of reactive oxygen species in human MDA-MB-231 cells at 30 uM after 24 hrs by DCFH-DA probe-based flow cytometric method. It counts as physicochemical, cell-based. The following applies: mda-mb-231, 24 h.
Data set [6] has as its target T1, Serine/threonine-protein kinase Chk1/2 (Homo sapiens) (UniProt O96017+O14757). Briefly: Induction of CHK1/2 phosphorylation in human MDA-MB-231 cells assessed as increase in p53 phosphorylation at 10 uM after 6 to 24 hrs by Western blot method. It counts as cell-based.
Data set [7] is described as follows: Cytotoxicity against human MCF7 cells assessed as growth inhibition after 24 to 48 hrs by MTT assay. It counts as functional, cell-based.
Data set [8] in a line: Cytotoxicity against human T47D cells assessed as growth inhibition after 24 to 48 hrs by MTT assay. It counts as functional, cell-based.
The target of data set [9] is T2, Serine/threonine-protein kinase Chk1 (Homo sapiens) (UniProt O14757).
T2 sequence (whole entry): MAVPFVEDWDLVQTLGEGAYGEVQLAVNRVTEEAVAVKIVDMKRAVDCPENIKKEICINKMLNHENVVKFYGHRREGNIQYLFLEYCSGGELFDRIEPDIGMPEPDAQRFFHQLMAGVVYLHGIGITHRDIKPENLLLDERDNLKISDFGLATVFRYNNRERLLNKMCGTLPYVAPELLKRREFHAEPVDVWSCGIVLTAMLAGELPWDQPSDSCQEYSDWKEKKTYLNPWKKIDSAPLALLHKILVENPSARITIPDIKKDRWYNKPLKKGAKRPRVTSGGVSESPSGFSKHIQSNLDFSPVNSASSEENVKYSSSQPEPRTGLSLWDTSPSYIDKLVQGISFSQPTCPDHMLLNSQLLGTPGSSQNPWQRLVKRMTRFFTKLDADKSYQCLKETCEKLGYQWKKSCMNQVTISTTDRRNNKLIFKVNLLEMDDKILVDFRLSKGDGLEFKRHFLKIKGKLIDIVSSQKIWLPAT
Briefly: Induction of CHK1 phosphorylation in human MDA-MB-231 cells at 10 uM after 6 to 24 hrs by Western blot method. It counts as cell-based.

The target of data set [10] is Serine/threonine-protein kinase Chk2 (Homo sapiens) (UniProt O96017). Briefly: Induction of CHK2 phosphorylation in human MDA-MB-231 cells at 10 uM after 6 to 24 hrs by Western blot method. It counts as cell-based.
For data set [11], the system named is MDA-MB-231. Briefly: Induction of apoptosis in human MDA-MB-231 cells assessed as PARP cleavage by flow cytometric method. It counts as functional, cell-based.
Data set [12] concerns the target T1, Serine/threonine-protein kinase Chk1/2 (Homo sapiens). Put plainly: Induction of CHK1/2 phosphorylation in human MDA-MB-231 cells assessed as increase in p21 protein expression at 10 uM after 6 to 24 hrs by Western blot method. It counts as cell-based.
The nature of data set [13]: Cytotoxicity against human IMR90 cells assessed as growth inhibition up to 40 uM after 24 to 48 hrs by MTT assay. As to conditions: imr-90. It counts as toxicity, cell-based.
The nature of data set [14]: Cell cycle arrest in human MDA-MB-231 cells assessed as accumulation at S phase at 32 uM after 6 to 12 hrs by propidium iodide staining-based flow cytometric method. It counts as functional.
Data set [15] has as its system MDA-MB-231. Briefly: Binding affinity to DNA minor groove in human MDA-MB-231 cells up to 100 uM after 20 mins by Hoechst 33342 staining-based fluorometric method. It counts as cell-based.
Data set [16] has as its system MDA-MB-231. Briefly: Induction of DNA damage in human MDA-MB-231 cells assessed as phosphorylation of gammaH2AX at IC50 to 3 times IC50 after 48 hrs by flow cytometric analysis. It counts as functional, cell-based.

Structures are written as SMILES. The source made the active and inactive calls. No cut-off for these calls is given here.

T1 sequence (O96017 whole entry, looked up, one chain of several): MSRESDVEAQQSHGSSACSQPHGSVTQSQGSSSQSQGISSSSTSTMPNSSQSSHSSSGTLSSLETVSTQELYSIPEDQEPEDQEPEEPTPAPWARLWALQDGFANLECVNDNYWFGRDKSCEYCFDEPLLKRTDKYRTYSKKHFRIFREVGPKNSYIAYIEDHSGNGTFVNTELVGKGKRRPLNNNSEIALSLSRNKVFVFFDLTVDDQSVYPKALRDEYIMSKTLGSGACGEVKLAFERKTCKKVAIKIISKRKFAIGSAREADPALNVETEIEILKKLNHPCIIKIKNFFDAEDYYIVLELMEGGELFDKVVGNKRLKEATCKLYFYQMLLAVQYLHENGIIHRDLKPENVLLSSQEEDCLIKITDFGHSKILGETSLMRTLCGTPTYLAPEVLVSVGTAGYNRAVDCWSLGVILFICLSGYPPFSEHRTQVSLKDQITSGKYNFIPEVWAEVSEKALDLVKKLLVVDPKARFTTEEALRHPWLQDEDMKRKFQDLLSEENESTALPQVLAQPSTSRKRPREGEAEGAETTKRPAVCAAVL
Serine-protein kinase ATM (Homo sapiens), sequence (Q13315 whole entry): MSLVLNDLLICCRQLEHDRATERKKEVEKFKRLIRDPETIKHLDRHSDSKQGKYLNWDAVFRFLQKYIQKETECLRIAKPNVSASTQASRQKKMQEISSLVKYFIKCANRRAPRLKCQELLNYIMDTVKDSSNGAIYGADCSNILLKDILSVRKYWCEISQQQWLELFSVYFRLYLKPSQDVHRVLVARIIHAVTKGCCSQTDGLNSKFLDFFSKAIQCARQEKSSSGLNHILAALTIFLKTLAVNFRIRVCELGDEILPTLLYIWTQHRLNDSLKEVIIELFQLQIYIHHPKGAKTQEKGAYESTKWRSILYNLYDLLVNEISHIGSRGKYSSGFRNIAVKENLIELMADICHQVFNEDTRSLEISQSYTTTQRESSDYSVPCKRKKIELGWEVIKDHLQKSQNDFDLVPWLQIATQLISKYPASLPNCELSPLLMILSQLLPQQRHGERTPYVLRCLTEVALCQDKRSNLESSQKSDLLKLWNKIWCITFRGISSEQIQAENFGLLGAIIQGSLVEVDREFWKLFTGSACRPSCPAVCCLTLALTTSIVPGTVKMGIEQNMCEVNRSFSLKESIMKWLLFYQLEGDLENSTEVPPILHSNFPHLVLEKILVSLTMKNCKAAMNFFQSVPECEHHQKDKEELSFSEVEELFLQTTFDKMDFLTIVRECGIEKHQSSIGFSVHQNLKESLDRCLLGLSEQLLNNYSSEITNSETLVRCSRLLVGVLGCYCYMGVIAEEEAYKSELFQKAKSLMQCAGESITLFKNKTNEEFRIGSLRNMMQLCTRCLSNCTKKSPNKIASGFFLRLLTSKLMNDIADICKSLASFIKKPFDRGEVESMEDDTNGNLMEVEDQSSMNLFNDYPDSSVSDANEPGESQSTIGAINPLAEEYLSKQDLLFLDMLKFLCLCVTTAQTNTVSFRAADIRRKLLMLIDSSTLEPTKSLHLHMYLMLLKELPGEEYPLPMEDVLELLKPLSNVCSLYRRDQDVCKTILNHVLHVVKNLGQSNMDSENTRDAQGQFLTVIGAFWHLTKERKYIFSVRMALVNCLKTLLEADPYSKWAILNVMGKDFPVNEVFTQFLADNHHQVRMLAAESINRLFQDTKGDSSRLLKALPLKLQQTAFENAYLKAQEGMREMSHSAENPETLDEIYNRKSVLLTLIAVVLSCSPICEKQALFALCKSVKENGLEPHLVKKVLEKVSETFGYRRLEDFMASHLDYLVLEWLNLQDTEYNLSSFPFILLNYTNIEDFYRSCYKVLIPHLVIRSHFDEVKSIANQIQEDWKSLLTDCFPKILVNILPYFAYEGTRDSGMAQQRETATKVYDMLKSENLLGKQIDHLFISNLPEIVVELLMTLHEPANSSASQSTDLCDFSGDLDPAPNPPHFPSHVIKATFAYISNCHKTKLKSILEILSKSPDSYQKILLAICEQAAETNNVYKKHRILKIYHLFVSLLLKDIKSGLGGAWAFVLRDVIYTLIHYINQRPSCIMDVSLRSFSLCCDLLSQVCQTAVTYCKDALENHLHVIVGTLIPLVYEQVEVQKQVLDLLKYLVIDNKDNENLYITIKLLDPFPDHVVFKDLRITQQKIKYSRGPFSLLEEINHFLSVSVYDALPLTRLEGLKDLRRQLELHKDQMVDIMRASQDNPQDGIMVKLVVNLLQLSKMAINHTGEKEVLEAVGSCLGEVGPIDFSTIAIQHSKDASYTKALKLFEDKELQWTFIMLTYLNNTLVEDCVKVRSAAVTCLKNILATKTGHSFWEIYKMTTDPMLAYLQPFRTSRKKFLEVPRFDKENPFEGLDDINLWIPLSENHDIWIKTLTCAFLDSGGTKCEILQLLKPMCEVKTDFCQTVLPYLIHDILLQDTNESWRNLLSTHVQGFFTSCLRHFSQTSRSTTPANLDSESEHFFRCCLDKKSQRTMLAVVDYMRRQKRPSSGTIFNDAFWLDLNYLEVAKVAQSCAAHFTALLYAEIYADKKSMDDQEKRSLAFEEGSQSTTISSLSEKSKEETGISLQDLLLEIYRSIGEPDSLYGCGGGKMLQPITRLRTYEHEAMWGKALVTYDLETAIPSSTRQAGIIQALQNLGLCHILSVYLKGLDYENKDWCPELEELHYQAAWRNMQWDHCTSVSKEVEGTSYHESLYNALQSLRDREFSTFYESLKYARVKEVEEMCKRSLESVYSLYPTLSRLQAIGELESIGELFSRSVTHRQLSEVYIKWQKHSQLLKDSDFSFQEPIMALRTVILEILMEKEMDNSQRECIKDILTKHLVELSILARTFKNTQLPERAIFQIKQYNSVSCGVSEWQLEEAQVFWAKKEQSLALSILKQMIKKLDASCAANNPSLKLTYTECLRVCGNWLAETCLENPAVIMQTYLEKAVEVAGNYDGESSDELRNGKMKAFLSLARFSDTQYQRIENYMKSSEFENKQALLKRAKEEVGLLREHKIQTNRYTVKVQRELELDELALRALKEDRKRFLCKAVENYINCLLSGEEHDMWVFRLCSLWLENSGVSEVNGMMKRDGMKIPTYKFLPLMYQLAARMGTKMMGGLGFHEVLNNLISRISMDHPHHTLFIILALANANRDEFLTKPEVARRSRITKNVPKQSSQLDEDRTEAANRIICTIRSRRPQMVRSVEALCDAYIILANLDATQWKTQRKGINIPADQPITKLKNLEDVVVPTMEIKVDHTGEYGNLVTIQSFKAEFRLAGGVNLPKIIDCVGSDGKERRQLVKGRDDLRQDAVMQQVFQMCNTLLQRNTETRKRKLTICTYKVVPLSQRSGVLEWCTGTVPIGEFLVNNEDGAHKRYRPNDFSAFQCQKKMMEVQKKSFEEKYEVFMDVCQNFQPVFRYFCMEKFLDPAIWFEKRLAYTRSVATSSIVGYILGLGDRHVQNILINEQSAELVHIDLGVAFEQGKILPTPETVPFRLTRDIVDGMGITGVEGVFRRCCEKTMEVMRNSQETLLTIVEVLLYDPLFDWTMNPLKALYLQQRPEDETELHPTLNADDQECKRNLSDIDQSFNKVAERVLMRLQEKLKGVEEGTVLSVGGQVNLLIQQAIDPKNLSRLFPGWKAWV
Serine/threonine-protein kinase Chk2 (Homo sapiens), sequence (O96017 whole entry): as the sequence (O96017 whole entry, looked up, one chain of several) above

For the compound `CC[C@H](C)C(=O)O[C@H]1C[C@@H](C)C=C2C=C[C@H](C)[C@H](CC[C@@H](O)C[C@@H](CC(=O)NO)OC(=O)c3ccc4ccccc4c3)[C@H]21`, in data set [1], the IC50 was determined as 17.3 µM. Besides, the outcome in data set [2] was Active.
For the compound `CC[C@H](C)C(=O)O[C@H]1C[C@@H](C)C=C2C=C[C@H](C)[C@H](CC[C@@H](O)C[C@@H](CC(=O)NO)OC(=O)Cc3ccccc3)[C@H]21`, in data set [1], the IC50 came to 5.8 µM. Moreover, the result in [2] was Active.
On to `CC[C@H](C)C(=O)O[C@H]1C[C@@H](C)C=C2C=C[C@H](C)[C@H](CC[C@@H]3C[C@@H](O)CC(=O)O3)[C@H]21` [LOVASTATIN], for which the IC50 is 5.4 µM in [1], over 40 µM in data set [3], over 40 µM in data set [7] and over 40 µM in data set [8]. In addition, the result in data set [4] and in data set [6] was Active. Further, in data set [5], the result was Active.
On to `CC[C@H](C)C(=O)O[C@H]1C[C@@H](C)C=C2C=C[C@H](C)[C@H](CC[C@@H](O)C[C@@H](CC(=O)NO)OC(C)=O)[C@H]21`, for which, in data set [1], the IC50 was found to be 11.4 µM. The result in data set [2] was Active.
On to `CC[C@H](C)C(=O)O[C@H]1C[C@@H](C)C=C2C=C[C@H](C)[C@H](CC[C@@H](O)C[C@@H](CC(=O)NO)OC(=O)c3ccccc3)[C@H]21`, for which the outcome in data set [9], in data set [10], in [4], in data set [12], in data set [6] and in data set [14] was Active. Further, the result in the data set with MDA-MB-231 [15] and in the data set with MDA-MB-231 [16] was Active. Moreover, the results for the Activity entry (with MDA-MB-231 [11]; in data set [2]; in data set [13]) were “Dose-dependent effect”, “Active” and “Non-Toxic”, respectively. In addition, the half-maximal inhibitory concentration (IC50) is 3.3 µM in data set [1], 30 to 40 µM in data set [3], 30 to 40 µM in data set [7] and 30 to 40 µM in data set [8].
On to `CC[C@H](C)C(=O)O[C@H]1C[C@@H](C)C=C2C=C[C@H](C)[C@H](CC[C@@H](O)C[C@@H](CC(=O)NO)OC(=O)c3ccc([N+](=O)[O-])cc3)[C@H]21`, for which, in [1], the IC50 turned out to be 8.2 µM. For the same compound, in data set [2], the outcome was Active.
As for `CC[C@H](C)C(=O)O[C@H]1C[C@@H](C)C=C2C=C[C@H](C)[C@H](CC[C@@H](O)C[C@@H](CC(=O)NO)OC(=O)c3ccc(OC(F)(F)F)cc3)[C@H]21`, the IC50 in [1] was 20.3 µM. In data set [2], the result was Active.
Turning to `CC[C@H](C)C(=O)O[C@H]1C[C@@H](C)C=C2C=C[C@H](C)[C@H](CC[C@@H](O)C[C@@H](CC(=O)NO)OC(=O)C(C)(C)C)[C@H]21`, the IC50 in data set [1] was 7.2 µM. In data set [2], the result was Active.
Take `CC[C@H](C)C(=O)O[C@H]1C[C@@H](C)C=C2C=C[C@H](C)[C@H](CC[C@@H](O)C[C@@H](CC(=O)NO)OC(=O)c3ccc(Cl)cc3)[C@H]21`: in data set [1], the IC50 is 21.7 µM. For the same compound, the outcome in data set [2] was Active.
For the compound `C[C@H]1C=C2C=C[C@H](C)[C@H](CC[C@@H](O)C[C@H](O)CC(=O)NO)[C@H]2[C@@H](O)C1`, the IC50 in [1] was over 30 µM. The outcome in data set [2] was Active.
`CC[C@H](C)C(=O)O[C@H]1C[C@@H](C)C=C2C=C[C@H](C)[C@H](CC[C@@H](O)C[C@@H](CC(=O)NO)OC(=O)CCc3ccccc3)[C@H]21`: in data set [1], the IC50 was found to be 6.2 µM. Moreover, the outcome in [2] was Active.
